The assay addresses T1, Recombinant human DGAT2 protein (Homo sapiens, UniProt Q96PD7).
T1 construct: FLAG (DYKDDDDK); (N); made in house; host or cells: Sf-21 insect cells (BacPAK baculovirus system); used as a membrane preparation
T1 sequence (Q96PD7 1-388): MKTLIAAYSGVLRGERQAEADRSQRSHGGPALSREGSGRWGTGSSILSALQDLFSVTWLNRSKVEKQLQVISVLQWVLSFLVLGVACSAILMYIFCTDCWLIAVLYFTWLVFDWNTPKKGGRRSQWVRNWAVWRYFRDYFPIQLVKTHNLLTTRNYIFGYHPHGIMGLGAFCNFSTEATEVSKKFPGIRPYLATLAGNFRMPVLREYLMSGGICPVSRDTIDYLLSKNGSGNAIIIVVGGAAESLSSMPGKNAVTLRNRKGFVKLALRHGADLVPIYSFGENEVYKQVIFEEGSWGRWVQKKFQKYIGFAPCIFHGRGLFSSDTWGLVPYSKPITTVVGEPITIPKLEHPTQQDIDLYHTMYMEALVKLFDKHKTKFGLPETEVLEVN
Kind of assay: Measurement of inhibitory effect against DGAT2 enzyme activity (SPA, Phospholipid FlashPlate, [14C]-TG production). The class given is biochemical. As to conditions: concentration inhibiting [14C]-labeled triacyl glycerol (TG) production by 50%; 2 μg DGAT2-membrane protein from Sf-21 cells, 37° C. The essentials: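 Membranes from Sf-21 cells expressing human DGAT2 (2 μg) preincubated 20 min at 37 °C with compound (3 nM–10 μM, 1% DMSO) in HEPES/MgCl2/BSA with 50 μM 1,2-dioleoyl glycerol, then 1 μM [14C]oleoyl-CoA for 15 min. [14C]-TG measured by SPA FlashPlate; inhibition as % of untreated control.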

By IC50 is commonly meant the concentration that inhibits the measured activity by half. Take `CCOc1ccccc1O[C@@H]1CCCN(c2cncc(NC(=O)Cc3ccc(O[C@@H](C)C(=O)O)cc3)n2)C1` [Example 104, (S)-2-(4-(2-((6-((R)-3-(2-ethoxyphenoxy)piperidin-1-yl)pyrazin-2-yl)amino)-2-oxoethyl)phenoxy)propanoic acid]: the 50% inhibitory concentration (IC50) was determined as 0.66 µM.

Regarding `CCOc1cccnc1O[C@@H]1CCCN(c2cncc(NC(=O)Cc3ccc(OC(C)(C)C(=O)O)cc3)n2)C1` [Example 105, (R)-2-(4-(2-((6-(3-((3-ethoxypyridin-2-yl)oxy)piperidin-1-yl)pyrazin-2-yl)amino)-2-oxoethyl)phenoxy)-2-methylpropanoic acid], the IC50 turned out to be 0.09 µM.

As to `CCOc1ccccc1O[C@@H]1CCCN(c2nccc(NC(=O)Cc3ccc(OC(C)(C)C(=O)O)cc3)n2)C1` [Example 106, (R)-2-(4-(2-((2-(3-(2-ethoxyphenoxy)piperidin-1-yl)pyrimidin-4-yl)amino)-2-oxoethyl)phenoxy)-2-methylpropanoic acid], the IC50 was determined as 0.73 µM. Under `CCOc1ccccc1O[C@@H]1CCCN(c2cncc(NC(=O)Cc3ccc(OCc4ccc(C(C)(C)C(=O)O)cc4)cc3)n2)C1` [Example 107, (R)-2-(4-((4-(2-((6-(3-(2-ethoxyphenoxy)piperidin-1-yl)pyrazin-2-yl)amino)-2-oxoethyl)phenoxy)methyl)phenyl)-2-methylpropanoic acid] stands 0.07 µM; under `CCOc1cccnc1O[C@@H]1CCCN(c2cncc(NC(=O)CCc3ccc(OC(C)(C)C(=O)O)cc3)n2)C1` [Example 108, (R)-2-(4-(3-((6-(3-((3-ethoxypyridin-2-yl)oxy)piperidin-1-yl)pyrazin-2-yl)amino)-3-oxopropyl)phenoxy)-2-methylpropanoic acid], 0.078 µM; under `CCOc1ccccc1O[C@@H]1CCCN(c2nccc(NC(=O)CCc3ccc(OC(C)(C)C(=O)O)cc3)n2)C1` [Example 109, (R)-2-(4-(3-((2-(3-(2-ethoxyphenoxy)piperidin-1-yl)pyrimidin-4-yl)amino)-3-oxopropyl)phenoxy)-2-methylpropanoic acid], 1.1 µM. For `CCOc1ccccc1O[C@@H]1CCCN(c2cncc(NC(=O)C(C)(C)c3ccc(CC(C)(C)C(=O)O)cc3)n2)C1` [Example 110, (R)-3-(4-(1-((6-(3-(2-ethoxyphenoxy)piperidin-1-yl)pyrazin-2-yl)amino)-2-methyl-1-oxopropan-2-yl)phenyl)-2,2-dimethylpropanoic acid] the value was 0.076 µM; for `CCOc1ccccc1O[C@@H]1CCCN(c2cncc(NC(=O)C(C)(C)Cc3ccc(C(C)(C)C(=O)O)cc3)n2)C1` [Example 111, (R)-2-(4-(3-((6-(3-(2-ethoxyphenoxy)piperidin-1-yl)pyrazin-2-yl)amino)-2,2-dimethyl-3-oxopropyl)phenyl)-2-methylpropanoic acid], 0.69 µM; for `CCOc1ccccc1O[C@@H]1CCCN(c2nccc(NC(=O)Cc3ccc(CC(C)(C)C(=O)O)cc3)n2)C1` [Example 112, (R)-3-(4-(2-((2-(3-(2-ethoxyphenoxy)piperidin-1-yl)pyrimidin-4-yl)amino)-2-oxoethyl)phenyl)-2,2-dimethylpropanoic acid], 0.06 µM. Under `CCOc1ccccc1O[C@@H]1CCCN(c2ccnc(NC(=O)Cc3ccc(CC(C)(C)C(=O)O)cc3)n2)C1` [Example 113, (R)-3-(4-(2-((4-(3-(2-ethoxyphenoxy)piperidin-1-yl)pyrimidin-2-yl)amino)-2-oxoethyl)phenyl)-2,2-dimethylpropanoic acid] stands 0.15 µM; under `CCOc1cccnc1O[C@@H]1CCCN(c2ccnc(NC(=O)Cc3ccc(CC(C)(C)C(=O)O)cc3)n2)C1` [Example 114, (R)-3-(4-(2-((4-(3-((3-ethoxypyridin-2-yl)oxy)piperidin-1-yl)pyrimidin-2-yl)amino)-2-oxoethyl)phenyl)-2,2-dimethylpropanoic acid], 0.14 µM. Turning to `CCOc1cccnc1O[C@@H]1CCCN(c2nccc(NC(=O)Cc3ccc(CC(C)(C)C(=O)O)cc3)n2)C1` [Example 115, (R)-3-(4-(2-((2-(3-((3-ethoxypyridin-2-yl)oxy)piperidin-1-yl)pyrimidin-4-yl)amino)-2-oxoethyl)phenyl)-2,2-dimethylpropanoic acid], the IC50 amounted to 0.14 µM. For `CCOc1cccnc1O[C@@H]1CCCN(c2cncc(NC(=O)Cc3ccc(CC(C)(C)C(=O)O)cc3)n2)C1` [Example 116, (R)-3-(4-(2-((6-(3-((3-ethoxypyridin-2-yl)oxy)piperidin-1-yl)pyrazin-2-yl)amino)-2-oxoethyl)phenyl)-2,2-dimethylpropanoic acid], the 50% inhibitory concentration (IC50) is 0.038 µM.

For `CCOc1ccccc1O[C@@H]1CCCN(c2cncc(NC(=O)CCC34CCC(C(=O)O)(CC3)CC4)n2)C1` [Example 117, (R)-4-(3-((6-(3-(2-ethoxyphenoxy)piperidin-1-yl)pyrazin-2-yl)amino)-3-oxopropyl)bicyclo[2.2.2]octane-1-carboxylic acid], the IC50 was 0.14 µM. Under `CCOc1ccccc1O[C@@H]1CCCN(c2cncc(NC(=O)CC34CCC(C(=O)O)(CC3)CC4)n2)C1` [Example 118, (R)-4-(2-((6-(3-(2-ethoxyphenoxy)piperidin-1-yl)pyrazin-2-yl)amino)-2-oxoethyl)bicyclo[2.2.2]octane-1-carboxylic acid] stands 0.17 µM. `CCOc1cccnc1O[C@@H]1CCCN(c2cncc(NC(=O)CCC34CCC(C(=O)O)(CC3)CC4)n2)C1` [Example 120, (R)-4-(3-((6-(3-((3-ethoxypyridin-2-yl)oxy)piperidin-1-yl)pyrazin-2-yl)amino)-3-oxopropyl)bicyclo[2.2.2]octane-1-carboxylic acid]: the IC50 is 0.25 µM. Under `CCOc1ccccc1O[C@@H]1CCCN(c2cncc(NC(=O)/C=C/C34CCC(C(=O)O)(CC3)CC4)n2)C1` [Example 121, (R,E)-4-(3-((6-(3-(2-ethoxyphenoxy)piperidin-1-yl)pyrazin-2-yl)amino)-3-oxoprop-1-en-1-yl)bicyclo[2.2.2]octane-1-carboxylic acid] stands 0.098 µM; under `CCOc1ccccc1O[C@@H]1CCCN(c2nccc(NC(=O)CCc3ccc(C(C)(C)C(=O)O)cc3)n2)C1` [Example 122, (R)-2-(4-(3-((2-(3-(2-ethoxyphenoxy)piperidin-1-yl)pyrimidin-4-yl)amino)-3-oxopropyl)phenyl)-2-methylpropanoic acid], 0.06 µM.

`CCOc1cccnc1O[C@@H]1CCCN(c2cncc(NC(=O)CCc3ccc(C(C)(C)C(=O)O)cc3)n2)C1` [Example 123, (R)-2-(4-(3-((6-(3-((3-ethoxypyridin-2-yl)oxy)piperidin-1-yl)pyrazin-2-yl)amino)-3-oxopropyl)phenyl)-2-methylpropanoic acid]: the IC50 worked out at 0.035 µM. Under `CCOc1ccccc1O[C@@H]1CCCN(c2nccc(NC(=O)C(C)(C)c3ccc(CC(C)(C)C(=O)O)cc3)n2)C1` [Example 124, (R)-3-(4-(1-((2-(3-(2-ethoxyphenoxy)piperidin-1-yl)pyrimidin-4-yl)amino)-2-methyl-1-oxopropan-2-yl)phenyl)-2,2-dimethylpropanoic acid] stands 0.33 µM; under `CCOc1cccnc1O[C@@H]1CCCN(c2cncc(NC(=O)C(C)(C)c3ccc(CC(C)(C)C(=O)O)cc3)n2)C1` [Example 125, (R)-3-(4-(1-((6-(3-((3-ethoxypyridin-2-yl)oxy)piperidin-1-yl)pyrazin-2-yl)amino)-2-methyl-1-oxopropan-2-yl)phenyl)-2,2-dimethylpropanoic acid], 0.035 µM; under `CC(C)(Cc1ccc(C(C)(C)C(=O)Nc2cncc(N3CCC[C@@H](Oc4ccccc4OC4CCC4)C3)n2)cc1)C(=O)O` [Example 126, (R)-3-(4-(1-((6-(3-(2-cyclobutoxyphenoxy)piperidin-1-yl)pyrazin-2-yl)amino)-2-methyl-1-oxopropan-2-yl)phenyl)-2,2-dimethylpropanoic acid], 3.8 µM. For `CCOc1ccccc1O[C@@H]1CCCN(c2cncc(NC(=O)CCc3cccc(CC(C)(C)C(=O)O)c3)n2)C1` [Example 127, (R)-3-(3-(3-((6-(3-(2-ethoxyphenoxy)piperidin-1-yl)pyrazin-2-yl)amino)-3-oxopropyl)phenyl)-2,2-dimethylpropanoic acid], the IC50 was determined as 0.083 µM. Regarding `CCOc1cccnc1O[C@@H]1CCCN(c2cncc(NC(=O)CCc3cccc(CC(C)(C)C(=O)O)c3)n2)C1` [Example 128, (R)-3-(3-(3-((6-(3-((3-ethoxypyridin-2-yl)oxy)piperidin-1-yl)pyrazin-2-yl)amino)-3-oxopropyl)phenyl)-2,2-dimethylpropanoic acid], the IC50 turned out to be 0.1 µM. Under `CCOc1ccccc1O[C@@H]1CCCN(c2cncc(NC(=O)c3cccc(-c4cccc(CC(C)(C)C(=O)O)c4)c3)n2)C1` [Example 129, (R)-3-(3′-((6-(3-(2-ethoxyphenoxy)piperidin-1-yl)pyrazin-2-yl)carbamoyl)-[1,1′-biphenyl]-3-yl)-2,2-dimethylpropanoic acid] stands 0.54 µM; under `CCOc1ccccc1O[C@@H]1CCCN(c2cncc(NC(=O)c3cccc(-c4ccc(CC(C)(C)C(=O)O)cc4)c3)n2)C1` [Example 130, (R)-3-(3′-((6-(3-(2-ethoxyphenoxy)piperidin-1-yl)pyrazin-2-yl)carbamoyl)-[1,1′-biphenyl]-4-yl)-2,2-dimethylpropanoic acid], 0.38 µM.
